Source: patent US20120016011A1, “RNA Interference Mediated Inhibition of Connective Tissue Growth Factor (CTGF) Gene Expression Using Short Interfering Nucleic Acid (siNA)” (Merck Sharp & Dohme Corp., priority 2009, published 2012)
[invAb] = inverted abasic unit; m = 2'-O-methyl; r = 2'-OH (RNA); f = 2'-fluoro

Key:
CTGF mRNA [1] = assay: CTGF mRNA knockdown (Taqman RT-PCR) after siNA transfection of mouse NIH 3T3 cells; type: cell-based; details: mouse NIH3T3 cells, 10 nM siNA, 24 hrs, average of 3 experiments, vs non-targeting control
Procedure: NIH 3T3 (mouse; ATCC cat# CRL-1658): Cells were cultured at 37° C. in the presence of 5% CO2 and grown in Dulbecco's modified Eagle's medium (DMEM) with 4 mM L-glutamine adjusted to contain 1.5 g/L sodium bicarbonate and 4.5 g/L glucose and supplemented with fetal bovine serum at a final concentration of 10%, 100 μg/mL of streptomycin, and 100 U/mL penicillin.
(§1) Cells were plated in all wells of a tissue-culture treated, 96-well plate at a final count of 5000 cells/well in […], of the appropriate culture media. The cells were cultured for 24 hours after plating at 37° C. in the presence of 5% CO2.
(§2) After 24 hours, complexes containing siNA and RNAiMax were created as follows: A solution of RNAiMax diluted 33-fold in OPTI-MEM was prepared. In parallel, solutions of the siNAs for testing were prepared to a final concentration of 120 nM in OPTI-MEM. After incubation of RNAiMax/OPTI-MEM solution at room temperature for 5 min, an equal volume of the siNA solution and the RNAiMax solution were added together for each of the siNAs.
(§3) This solution was incubated at room temperature for 20 minutes. After incubation, 20 uL of the solution was added to each of the relevant wells. The final concentration of siNA in each well was 10 nM and the final volume of RNAiMax in each well was 0.3 ul.
(§4) The time of incubation with the RNAiMax-siNA complexes was 24 hours and there was no change in media between transfection and harvesting, unless otherwise indicated.
(§5) RNA was extracted from a 96-well plate using the TaqMan® Gene Expression Cells-to-CT™ Kit (Cat# 4399002) with a modified protocol. Briefly, a 60 uL (1 plate) or 110 uL (2 plates) of the Lysis Solution with DNase I was dispensed into each well of the Lysis Buffer Plate (twin.tec full skirt plate). The lysis buffer and stop plates were stored at 4° C. until the cells were washed.
(§6) The plate was spun at 1100 rpm for 5 minutes. The culture medium was aspirated and discarded from the wells of the culture plate. The lysis was performed automatically using a BioMek FX instrument and method. After the Biomek method was completed, the lysis plate was incubated for 2 min. at room temperature. The lysis plate can be stored for 2 hours at 4° C., or at −20° C. or −80° C. for two months.
(§7) Each well of the reverse transcription plate required 10 uL of 2× reverse transcriptase Buffer, 1 uL of 20× reverse transcription enzyme and 2 uL of nuclease-free water. The reverse transcription master mix was prepared by mixing 2× reverse transcription buffer, 20× reverse transcription enzyme mix, and nuclease-free water. 13 uL of the reverse transcription master mix was dispensed into each well of the reverse transcription plate (semi-skirted). A separate reverse transcription plate was prepared for each cell plate. The plate was loaded onto a Biomek NX or Biomek FX Dual -96 and the Biomek method was run. The program is programmed to automatically added 7 uL of lysate from the cell lysis procedure described above into each well of the reverse transcription plate. The plate is sealed and spun on a centrifuge (1000 rpm for 30 seconds) to settle the contents to the bottom of the reverse transcription plate. The plate is placed in a thermocycler at 37° C. for 60 min, 95° C. for 5 min, and 4° C. until the plate is removed from the thermocycler. Upon removal, if not used immediately, the plate was frozen at −20° C.
(§8) A series of probes and primers were used to detect the various mRNA transcripts of the genes of β-Actin (human cell line only), and of CTGF and GAPDH in mouse and human cell lines. All Taqman probes and primers for the experiments here-in described were supplied as pre-validated sets by Applied Biosystems, Inc. (see Table 3).
The assays were performed on an ABI 7900 instrument, according to the manufacturer's instructions. A TaqMan Gene Expression Master Mix (provided in the Cells-to-CT™, Applied Biosystems, Cat # 4399002) was used. […]

CTGF mRNA [2] = assay: CTGF mRNA knockdown (Taqman RT-PCR) after siNA transfection of human NHLF cells; type: cell-based; details: 10 nM siNA, 24 hrs, average of 3 experiments, vs non-targeting control
Procedure: NHLF (Normal human lung fibroblasts; Lonza cat# CC-2512): Cells were cultured at 37° C. in the presence of 5% CO2 and grown in Fibroblast Basal Medium (Lonza cat# CC-3132) supplemented with 2% FBS and growth factors (provided with the kit) and 100 μg/mL of streptomycin and 100 U/mL penicillin.
as §1, §2, §3, §4, §5, §6, §7, §8
The assays were performed on an ABI 7900 instrument, according to the manufacturer's instructions. A TaqMan Gene Expression Master Mix (provided in the Cells-to-CT™, Applied Biosystems, Cat # 4399002) was used. The PCR reactions were carried out at 50° C. for 2 min, 95° C. for 20 min followed by 40 cycles at 95° C. for 15 secs and 60° C. for 1 min. […]

Row | Substance | % KD Mouse (CTGF mRNA [1]) | % KD Human (CTGF mRNA [2])
1 | 48063-DC: siNA duplex; sense SEQ ID NO: 91 B AcAcGAAcucAuuAGAcuA TTB; antisense SEQ ID NO: 92 UAGucuAAuGAGuucGuGuUU (sense ACACGAACUCAUUAGACUATT; antisense UAGUCUAAUGAGUUCGUGUUU; sense: DNA at AGT, 2'-fluoro at CU, [invAb] at 5' end, 3' end, backbone not given here; antisense: sugars from the 5' end rrrfffmmfmmmfffmfmfmm, backbone not given here) | 84 ± 2% | 59 ± 3%
2 | 48041-DC: siNA duplex; sense SEQ ID NO: 47 B GAuucccAcccAAuucAAA TTB; antisense SEQ ID NO: 48 UUUGAAuuGGGuGGGAAucUU (sense GAUUCCCACCCAAUUCAAATT; antisense UUUGAAUUGGGUGGGAAUCUU; sense: DNA at AGT, 2'-fluoro at CU, [invAb] at 5' end, 3' end, backbone not given here; antisense: sugars from the 5' end rrrmmmffmmmfmmmmmffmm, backbone not given here) | 13 ± 3% | 73±4%
3 | 48077-DC: siNA duplex; sense SEQ ID NO: 119 B AGGAAGuAAGGGAcAcGAA TTB; antisense SEQ ID NO: 120 UUCGuGucccuuAcuuccuUU (sense AGGAAGUAAGGGACACGAATT; antisense UUCGUGUCCCUUACUUCCUUU; sense: DNA at AGT, 2'-fluoro at CU, [invAb] at 5' end, 3' end, backbone not given here; antisense: sugars from the 5' end rrrmfmffffffmffffffmm, backbone not given here) | 71 ± 4% | 19 ± 2%
4 | 48060-DC: siNA duplex; sense SEQ ID NO: 85 B ucuGucAAccucAGAcAcu TTB; antisense SEQ ID NO: 86 AGUGucuGAGGuuGAcAGAUU (sense UCUGUCAACCUCAGACACUTT; antisense AGUGUCUGAGGUUGACAGAUU; sense: DNA at AGT, 2'-fluoro at CU, [invAb] at 5' end, 3' end, backbone not given here; antisense: sugars from the 5' end rrrmfffmmmmffmmfmmmmm, backbone not given here) | 74 ± 3% | 64 ± 8%
5 | 48069-DC: siNA duplex; sense SEQ ID NO: 103 B AGuGcAuccGGAcAccuAA TTB; antisense SEQ ID NO: 104 UUAGGuGuccGGAuGcAcuUU (sense AGUGCAUCCGGACACCUAATT; antisense UUAGGUGUCCGGAUGCACUUU; sense: DNA at AGT, 2'-fluoro at CU, [invAb] at 5' end, 3' end, backbone not given here; antisense: sugars from the 5' end rrrmmfmfffmmmfmfmffmm, backbone not given here) | 55 ± 2% | 45 ± 7%
6 | 48062-DC: siNA duplex; sense SEQ ID NO: 89 B ccAcucuGccAGuGGAGuu TTB; antisense SEQ ID NO: 90 AACuccAcuGGcAGAGuGGUU (sense CCACUCUGCCAGUGGAGUUTT; antisense AACUCCACUGGCAGAGUGGUU; sense: DNA at AGT, 2'-fluoro at CU, [invAb] at 5' end, 3' end, backbone not given here; antisense: sugars from the 5' end rrrfffmffmmfmmmmfmmmm, backbone not given here) | 12 ± 2% | −1 ± 18%
7 | 48071-DC: siNA duplex; sense SEQ ID NO: 107 B ccAAcuAuGAuGcGAGccA TTB; antisense SEQ ID NO: 108 UGGcucGcAucAuAGuuGGUU (sense CCAACUAUGAUGCGAGCCATT; antisense UGGCUCGCAUCAUAGUUGGUU; sense: DNA at AGT, 2'-fluoro at CU, [invAb] at 5' end, 3' end, backbone not given here; antisense: sugars from the 5' end rrrfffmfmffmfmmffmmmm, backbone not given here) | 21 ± 5% | 30 ± 15%
8 | 48078-DC: siNA duplex; sense SEQ ID NO: 121 B GGuAcuAGcuGAGGuuAuu TTB; antisense SEQ ID NO: 122 AAUAAccucAGcuAGuAccUU (sense GGUACUAGCUGAGGUUAUUTT; antisense AAUAACCUCAGCUAGUACCUU; sense: DNA at AGT, 2'-fluoro at CU, [invAb] at 5' end, 3' end, backbone not given here; antisense: sugars from the 5' end rrrmmffffmmffmmfmffmm, backbone not given here) | 69 ± 1% | 31 ± 6%
9 | 48045-DC: siNA duplex; sense SEQ ID NO: 55 B cuGAcGGcGAGGucAuGAA TTB; antisense SEQ ID NO: 56 UUCAuGAccucGccGucAGUU (sense CUGACGGCGAGGUCAUGAATT; antisense UUCAUGACCUCGCCGUCAGUU; sense: DNA at AGT, 2'-fluoro at CU, [invAb] at 5' end, 3' end, backbone not given here; antisense: sugars from the 5' end rrrmfmmffffmffmffmmmm, backbone not given here) | 19 ± 4% | 18 ± 4%
10 | 48039-DC: siNA duplex; sense SEQ ID NO: 43 B ccuAucAAGuuuGAGcuuu TTB; antisense SEQ ID NO: 44 AAAGcucAAAcuuGAuAGGUU | 21±7% | 81 ± 3%
11 | 48053-DC: siNA duplex; sense SEQ ID NO: 71 B cAGAGAGuGAGAGAcAuuA TTB; antisense SEQ ID NO: 72 UAAuGucucucAcucucuGUU (sense CAGAGAGUGAGAGACAUUATT; antisense UAAUGUCUCUCACUCUCUGUU; sense: DNA at AGT, 2'-fluoro at CU, [invAb] at 5' end, 3' end, backbone not given here; antisense: sugars from the 5' end rrrfmffffffmffffffmmm, backbone not given here) | 26 ± 9% | 45 ± 7%
12 | 48057-DC: siNA duplex; sense SEQ ID NO: 79 B cuAuuuGAAGuGuAAuuGA TTB; antisense SEQ ID NO: 80 UCAAuuAcAcuucAAAuAGUU (sense CUAUUUGAAGUGUAAUUGATT; antisense UCAAUUACACUUCAAAUAGUU; sense: DNA at AGT, 2'-fluoro at CU, [invAb] at 5' end, 3' end, backbone not given here; antisense: sugars from the 5' end rrrmffmfmffffmmmfmmmm, backbone not given here) | 26 ± 5% | 80 ± 5%
